Laboratory results as given in patent publication EP0437336B1, “Biophosphoryl hydrazines and their use as pesticides” (priority 1990, dated 1991).
Converted amounts (≈) assume the structure as drawn. Where two headings read alike, the source gives them in different places.

Tests used:
Southern Armyworm [1] = experiment: Biological Method D: Foliar Insecticidal Activity Test, Southern Armyworm test; assay type: in vivo, Spodoptera eridania; details: foliar spray; for AW 48 hrs LC50: 48 hours after treatment; for AW 96 hrs LC50: 96 hours after treatment
Protocol: (§1) Biological Method D: Foliar Insecticidal Activity Test
(§2) In evaluating the foliar insecticidal activity of the compounds of this invention against insects and mites, the following test procedures were employed.
(§3) Not all compounds were tested at each of the several concentrations stated above. Test concentrations of a compound were selected as those most likely to differentiate dose response of a particular compound toward a particular test insect.
(§4) Initial evaluations were made on one or more of the following pests:
(§5) For the Mexican Bean Beetle and Southern armyworm tests, individual lima bean (Phaseolus limeniss var. Woods' Prolific) leaves were placed on moistened pieces of filter paper in Petri dishes. The leaves were then sprayed with the test solution using a rotating turntable and allowed to dry. The dishes were then infested with 10 third instar larvae of either the Mexican Been Beetle or the Southern Armyworm. The dishes were then covered. Percent mortality was determined for each species and spray concentration at 48 and 96 hours after treatment.
(§6) The mortalities obtained in this manner were plotted on logarithmic probability paper.
(§7) The rotating turntable consists of a fixed, continuously operating spray nozzle under which targets are rotated at a fixed speed and distance. If the target is a Petri dish (such as for the bean beetle, armyworm, mite, or aphid tests), the distance from the nozzle is 38.1 cm (15 inches). If the target is a Mason jar (such as for the boll weevil test), the distance from the nozzle is 17.8 cm (7 inches). The nozzle is located 8 inches from the rotating shaft. The targets on individual platforms revolve around the shaft at 1 revolution per 20 seconds but only a brief portion of this time occurs in the spray path. Targets pass only once under the nozzle and then are removed to drying hoods.
(§8) The nozzle used is a 1/4 JCO Spraying Systems (Wheaton, Illinois) air atomizing nozzle equipped with a No. 2850 fluid cap and a No. 70 air cap. At the 68.95 x 10³ Pa gauge (10 psig) air pressure used and with liquid siphon feed, 1.89 ℓ/hr [0.5 GPH (gallons per hour)] are delivered in a round spray pattern with a 21 degree spray angle. Targets are misted with spray droplets to the point that the droplets coalesce to form a uniform thin film insufficient to drown test organisms.

Mexican Bean Beetle = experiment: Biological Method D: Foliar Insecticidal Activity Test, Mexican Bean Beetle test; assay type: in vivo, Epilachna varivestis; details: Epilachna varivestis
Protocol: as §1, §2, §3, §4, §5, §6, §7, §8

[2] = test system: southern corn rootworm, Diabrotica undecimpunctata howardi; experiment: Biological Method A: Corn Rootworm Screening Test (treated non-aggressive soil); details: soil concentration giving 90% mortality, 10 days at 27°C
Boll Weevil [3] = experiment: Biological Method D: Foliar Insecticidal Activity Test, boll weevil test; assay type: in vivo, Anthonomous grandis; details: spray into jar
Protocol: as §1, §2, §3, §4
(§9) For the boll weevil test, 10 adult weevils were placed in a 0.24 ℓ (0.5 pint) glass Mason jar containing a small cube of apple. The weevils were confined to the jar by fiberglass screen mesh secured by a screw-type rim cap. The jars were then sprayed with the test solution using a rotating turntable; directing the spray through the mesh into the jar. The percentage killed was determined after forty-eight and ninety six hours.
as §6, §7, §8

Green Peach Aphid [4] = experiment: Biological Method D: Foliar Insecticidal Activity Test, aphid test; assay type: in vivo, Myzus persicae; details: foliar spray; kill after twenty-four hours
Protocol: as §1, §2, §3, §4
(§10) For the aphid test, infested broccoli (Brassica oleracea italica var. DiCicco) leaves containing about 50 aphids were placed in a Petri dish lid on a moistened piece of cotton. The leaves were then sprayed to thorough wetness with the test solution using a rotating turntable, held for twenty-four hours and then the percentage killed was determined.
as §6, §7, §8

[5] = test system: southern corn rootworm, Diabrotica undecimpunctata howardi; details: at-planting soil application
Two-Spotted Spider Mite = experiment: Biological Method D: Foliar Insecticidal Activity Test, mite test; assay type: in vivo, Tetranychus urticae; parameters: key to LC50 TSM: I = inactive at concentration listed; details: for LC50: Tetranychus urticae
Protocol: as §1, §2, §3, §4
as §10, with “mite” for “aphid”, “bean (Phaseolus limensis” for “broccoli (Brassica oleracea italica”, “Woods Prolific) leaf discs [3.18 cm (1.25") in diameter]” for “DiCicco) leaves”, “mites” for “aphids”
as §6, §7, §8

Green Peach Aphid [6] = experiment: Biological Method D: Foliar Insecticidal Activity Test, aphid test; assay type: in vivo, Myzus persicae; parameters: key: I = inactive at concentration listed
Protocol: as §1, §2, §3, §4, §10, §6, §7, §8

Boll Weevil [7] = experiment: Biological Method D: Foliar Insecticidal Activity Test, boll weevil test; assay type: in vivo, Anthonomous grandis; parameters: key: I = inactive at concentration listed
Protocol: as §1, §2, §3, §4, §9, §6, §7, §8

Southern Armyworm [8] = experiment: Biological Method D: Foliar Insecticidal Activity Test, Southern Armyworm test; assay type: in vivo, Spodoptera eridania; parameters: key: I = inactive at concentration listed
Protocol: as §1, §2, §3, §4, §5, §6, §7, §8

[9] = test system: southern corn rootworm, Diabrotica undecimpunctata howardi; details: for foliar systemic nonagressive Method B crw % control at 0.56 kg/ha (0.5 lb/acre): percent control relative to infested check, from root damage ratings, 14 days post-spraying; for pest or weed control at 560 g/ha: Diabrotica undecimpunctata, in Zea mays, foliar, 336 h, read-out: foliar systemic nonagressive Method B crw % control at 0.56 kg/ha (0.5 lb/acre)
[10] = foliar spray, 48 hours after treatment, read-out: BB 48 hrs. LC50
[11] = foliar spray, 96 hours after treatment, read-out: BB 96 hrs LC50
[12] = foliar spray, kill after twenty-four hours
[13] = Method D foliar test, Mexican Bean Beetle, 48 hrs, read-out: LC50 BB 48 hrs.
[14] = Method D foliar test, Mexican Bean Beetle, 96 hrs, read-out: LC50 BB 96 hrs
[15] = Method D foliar test, Two-Spotted Spider Mite

Compound	AW 48 hrs LC50 (Southern Armyworm [1])	LC50 (Mexican Bean Beetle; [10]) [µg/mL]	LC50 (Mexican Bean Beetle; [11]) [µg/mL]	primary nonagressive Method A crw LC90 [2] [ppm]	GPA LC50 (Green Peach Aphid [4])	LC50 GPA (Green Peach Aphid [6])	LC50 (Mexican Bean Beetle; [13]) [µg/mL]	LC50 (Mexican Bean Beetle; [14]) [µg/mL]	LC50 BW 48 hrs (Boll Weevil [7])	LC50 BW 96 hrs (Boll Weevil [7])	LC50 AW 48 hrs (Southern Armyworm [8])	LC50 AW 96 hrs (Southern Armyworm [8])	LC50 TSM (Two-Spotted Spider Mite; [15])	pest or weed control at 560 g/ha [9] [%]	other results
CCCCNP(=S)(NNP(=S)(OCC)OCC)OCC (stereo not drawn) [Compound 74]	I	740 (≈ 2040 µM)	380 (≈ 1050 µM)	1.1	I										AW 96 hrs LC50 (Southern Armyworm [1]): I; BW 48 hrs LC50 (Boll Weevil [3]): I; BW 96 hrs LC50 (Boll Weevil [3]): I; secondary aggressive Method C crw LC50 ([5]; rated 17 days post-infestation): 1.03 kg/ha; secondary aggressive Method C crw LC50 ([5]; value in brackets): 0.92 lb/acre; TSM LC50 (Two-Spotted Spider Mite; [12]): I
C#CCOP(=S)(NNP(=S)(OCC)OCC)OCC (stereo not drawn) [Compound 12]				0.56		I	150 (≈ 433 µM)	62 (≈ 179 µM)	I	I	I	I	I		foliar systemic nonagressive Method B crw % control at 0.56 kg/ha (0.5 lb/acre) [9]: 30%
CCCOP(=S)(NNP(=S)(OCC)OC(C)C)OCCC (stereo not drawn) [Compound 82]	I	500 (≈ 1320 µM)	150 (≈ 396 µM)	0.7	I										secondary aggressive Method C crw LC50 ([5]; rated 17 days post-infestation): 0.95 kg/ha; secondary aggressive Method C crw LC50 ([5]; value in brackets): 0.85 lb/acre; TSM LC50 (Two-Spotted Spider Mite; [12]): I
CCOP(=S)(NNP(=S)(OCC)OC(C)(C(F)(F)F)C(F)(F)F)OCC (stereo not drawn) [Compound 39]				0.71		I	31 (≈ 65.6 µM)	150 (≈ 318 µM)	I	I	I	I		46	LC50 (Two-Spotted Spider Mite; Method D foliar test, Two-Spotted Spider Mite, read-out: LC50 TSM): 150 µg/mL (≈ 318 µM)
CCOP(=S)(NNP(=S)(OCC)OC(C)C(F)(F)F)OCC (stereo not drawn) [Compound 15]				<0.1		I	150 (≈ 371 µM)	62 (≈ 153 µM)	I	I	I	I	I	54	
CCOP(=S)(NNP(=S)(OCC)O[C@H]1C[C@@H](C)CC[C@@H]1C(C)C)OCC (stereo partly drawn) [Compound 35]				0.77		I	250 (≈ 560 µM)	52 (≈ 116 µM)	I	I	I	I	I	38	
CCCOP(=S)(NNP(=S)(OCC)OCC)OCCC [Compound 13, reference compound]				<0.1		I	150 (≈ 412 µM)	52 (≈ 143 µM)	I	I	I	I	I		foliar systemic nonagressive Method B crw % control at 0.56 kg/ha (0.5 lb/acre) [9]: 46%
CCCOP(=S)(NNP(=S)(OCC)OC(C)(C)C(F)(F)F)OCC (stereo not drawn) [Compound 69]	I	500 (≈ 1160 µM)	62 (≈ 143 µM)	1.1	I										AW 96 hrs LC50 (Southern Armyworm [1]): I; BW 48 hrs LC50 (Boll Weevil [3]): I; BW 96 hrs LC50 (Boll Weevil [3]): I; LC50 (Two-Spotted Spider Mite; 24 h, foliar spray, kill after twenty-four hours, read-out: TSM LC50): 360 µg/mL (≈ 833 µM)
